Data on six compounds can be found in patent US5741798A, “2-benzyl-4-sulfonyl-4H-isoquinolin-1,3-diones and their use as antiinflammatory agents” (priority 1997, dated 1998).

Where two headings read alike, the source gives them in different places.

The subject of assay [1] is Carrageenan-induced paw edema. The assay is described as follows: Carrageenan-Induced Paw Edema in Rats. Format: in vivo, rat. Particulars: oral, *p < 0.05. How it is done:
The antiinflammatory activities of two compounds in accordance with the invention (those of Examples 1 and 10) were determined in vivo and compared to those of the known antiinflammatory agents indomethacin and meloxicam, using the Carrageenan-Induced Paw Edema in Rats protocol described by C. A Winter et al. J. Pharmacol. Exp. Ther. 1963, 141, 369. Test compounds were administered orally.

The next assay relates to COX-2. The conditions noted are these: in words, background; cited from earlier work.
The target in another assay is T1, human recombinant COX-1 (Homo sapiens, UniProt P23219).
T1 construct: expressed in transfected cells; host or cells: Cos-A2 cells, stably transfected
Put plainly: COX-1 inhibition, COS cell assay. The format is cell-based. Particulars: for inhibition at 0.1 µM / inhibition at 1 µM / inhibition at 10 µM: COS, read-out: Inhibition of COX Enzymes in COS Cell Assays, COX-1 % inhibition. The procedure: (§1) Cos-A2 cells stably transfected with human recombinant COX-1 or COX-2 are cultured in 96 well tissue culture plates with Dulbecco's Modified Eagle Medium supplemented with 10% fetal bovine serum, glutamine (2 mM), penicillin (50 U/mL), streptomycin ([…]) and geneticin (400 μg/mL). Media is removed from confluent monolayers and the cells are washed twice with Hank's buffered saline solution. Fresh HBSS is added, with or without inhibitor, and the cells are incubated for 30 minutes at 37° C. Arachidonic acid (30 μM) is then added and the cells are incubated for an additional one hour at 37° C. Individual experiments represent a mean of triplicate wells for control and inhibitor doses. Supernatents are removed and stored at -80° C. until assayed for PGE2 by EIA (Amersham).
(§2) The inhibitory activities against COX-1 and COX-2 of the compounds described in the above Synthetic Examples were determined using the two in vitro assays described above.

The target of assay [2] is Human cyclooxygenase 1 (COX-1) (Homo sapiens, UniProt P23219). Put plainly: COX-1 inhibition, microsomal assay. Particulars: 20 min, read-out: % Inhibition of COX Enzymes in Microsomal Assays, COX-1. The procedure: (§3) Human cyclooxygenase 1 and 2 are expressed in a baculovirus expression system using High 5 insect cells. Microsomal fractions prepared from the cells are stored at -80° C. The assays are performed at room temperature in phosphate buffered saline. After incubating the COX-1 or COX-2 microsomes with hematin (2 μM), phenol (0.5 mM) and reduced glutathione (1 mM) for 5 minutes, inhibitor or DMSO vehicle is added and allowed to incubate for 20 minutes. Arachidonic acid (2 μM) is added and after 20 minutes the reaction is stopped by the addition of HCl (0.1 N HCl final concentration).
as §2

Assay [3] concerns the target T2, Human cyclooxygenase 2 (COX-2) (Homo sapiens, UniProt P35354).
T2 sequence (P35354 18-604): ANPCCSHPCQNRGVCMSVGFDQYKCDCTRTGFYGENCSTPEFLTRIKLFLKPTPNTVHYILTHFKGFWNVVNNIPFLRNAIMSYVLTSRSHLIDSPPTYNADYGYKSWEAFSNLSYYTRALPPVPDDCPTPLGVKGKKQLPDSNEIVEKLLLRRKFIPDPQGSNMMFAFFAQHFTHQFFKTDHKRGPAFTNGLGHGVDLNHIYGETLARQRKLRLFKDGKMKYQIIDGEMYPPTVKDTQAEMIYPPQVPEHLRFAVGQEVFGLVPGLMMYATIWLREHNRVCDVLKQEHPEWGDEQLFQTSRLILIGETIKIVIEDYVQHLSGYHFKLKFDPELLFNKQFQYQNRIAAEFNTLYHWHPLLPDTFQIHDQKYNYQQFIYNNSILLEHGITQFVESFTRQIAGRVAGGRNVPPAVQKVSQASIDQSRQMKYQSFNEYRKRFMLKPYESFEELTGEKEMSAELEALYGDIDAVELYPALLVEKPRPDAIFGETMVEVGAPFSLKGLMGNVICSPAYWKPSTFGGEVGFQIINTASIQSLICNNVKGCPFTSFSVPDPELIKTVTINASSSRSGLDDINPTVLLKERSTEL
The assay is described as follows: COX-2 inhibition, microsomal assay. The conditions noted are these: 20 min, read-out: % Inhibition of COX Enzymes in Microsomal Assays, COX-2. How it is done:
as §3, §2

The target in the next assay is T3, human recombinant COX-2 (Homo sapiens, UniProt P35354).
T3 construct: expressed in transfected cells; host or cells: Cos-A2 cells, stably transfected
T3 sequence (P35354 18-604): T2 sequence (P35354 18-604)
Put plainly: COX-2 inhibition, COS cell assay. The format is cell-based. Particulars: for IC50: COS cells, COX-2, read-out: Inhibition of COX Enzymes in COS Cell Assays, COX-2 IC50. How it is done: as §1, §2

Where [4] appears, read: COS, read-out: Inhibition of COX Enzymes in COS Cell Assays, COX-2 % inhibition.

T1 sequence (P23219 24-599): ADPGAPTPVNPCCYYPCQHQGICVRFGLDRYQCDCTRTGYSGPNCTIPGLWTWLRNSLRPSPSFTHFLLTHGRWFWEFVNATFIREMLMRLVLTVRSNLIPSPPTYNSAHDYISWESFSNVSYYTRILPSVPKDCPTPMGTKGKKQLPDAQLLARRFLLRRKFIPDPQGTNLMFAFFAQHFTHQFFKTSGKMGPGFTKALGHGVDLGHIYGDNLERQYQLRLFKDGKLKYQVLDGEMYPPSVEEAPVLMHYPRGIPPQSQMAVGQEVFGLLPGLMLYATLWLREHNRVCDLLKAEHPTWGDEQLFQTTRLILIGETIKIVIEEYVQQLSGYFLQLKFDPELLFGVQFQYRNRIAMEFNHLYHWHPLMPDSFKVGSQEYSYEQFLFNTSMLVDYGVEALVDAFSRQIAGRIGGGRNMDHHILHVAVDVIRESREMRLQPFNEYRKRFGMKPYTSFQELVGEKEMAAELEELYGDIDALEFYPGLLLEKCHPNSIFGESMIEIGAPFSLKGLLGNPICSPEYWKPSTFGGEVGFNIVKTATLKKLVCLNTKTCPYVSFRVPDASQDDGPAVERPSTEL
Sequence of Human cyclooxygenase 1 (COX-1) (P23219 24-599): as above

With `COc1ccc2c(c1)c(CC(=O)O)c(C)n2C(=O)c1ccc(Cl)cc1` [Indomethacin, reference compound], the “Effect of Compounds in Carrageenen Paw Edema in Rats, % Inhibition” value (from here on “Effect of Compounds … % Inhibition”) in assay [1] (10 mg/kg) was 58%.

For `Cc1cnc(NC(=O)C2=C(O)c3ccccc3S(=O)(=O)N2C)s1` [Meloxicam, reference compound], the “Effect of Compounds … % Inhibition” value in assay [1] (30 mg/kg) is recorded as 56%. For the same compound, the “selective inhibition of the COX-2 isoform” value with COX-2 is recorded as “more or less selectively inhibit the COX-2 isoform”.

One may read the IC50 as the concentration that gives 50% inhibition. For orientation: inhibition means the change of the read-out against control, counted positive when it falls. As for `CC(C)S(=O)(=O)C1C(=O)N(Cc2ccccc2)C(=O)c2ccc(Cl)cc21` (stereo not drawn) [Example 1, 2-Benzyl-6-chloro-4-(1-methylethyl)sulfonyl-4H-isoquinolin-1,3-dione], on human recombinant COX-1 (COS cells, COX-1, read-out: Inhibition of COX Enzymes in COS Cell Assays, COX-1 IC50), the IC50 was 1.4 µM. In addition, the “Effect of Compounds … % Inhibition” value in assay [1] (30 mg/kg) came out at 42.5%. Besides, in assay [2], the inhibition at 0.1 µg/mL was determined as 10%, the inhibition at 1 µg/mL turned out to be 34% and the inhibition at 10 µg/mL amounted to 57%.

With `CC(C)S(=O)(=O)C1C(=O)N(Cc2ccc(F)c(F)c2)C(=O)c2ccc(Cl)cc21` (stereo not drawn) [Example 10], at human recombinant COX-1, the inhibition at 0.1 µM worked out at 20%, the inhibition at 1 µM came out at 55% and the inhibition at 10 µM is 88%. Besides, the “Effect of Compounds … % Inhibition” value in assay [1] (30 mg/kg) came out at 38.6%. In assay [3], the inhibition at 0.1 µg/mL is -3%, the inhibition at 1 µg/mL was found to be 100% and the inhibition at 10 µg/mL was 100%. In addition, in assay [2], the inhibition at 0.1 µg/mL was 13%, the inhibition at 1 µg/mL turned out to be 40% and the inhibition at 10 µg/mL turned out to be 96%. Also, the IC50 at human recombinant COX-2 was determined as 0.1 µM.

For the compound `CC(C)S(=O)(=O)C1C(=O)N(Cc2ccccc2)C(=O)c2ccccc21` (stereo not drawn) [Example 5], on human recombinant COX-1, the inhibition at 0.1 µM was determined as 13%, the inhibition at 1 µM was determined as 43% and the inhibition at 10 µM came out at 74%. Moreover, in assay [3], the inhibition at 0.1 µg/mL was 27%, the inhibition at 1 µg/mL was found to be 56% and the inhibition at 10 µg/mL was 58%. Also, in assay [2], the inhibition at 0.1 µg/mL was -6%, the inhibition at 1 µg/mL worked out at 11% and the inhibition at 10 µg/mL was determined as 23%. Besides, the inhibition at 0.1 µM at human recombinant COX-2 (COS, read-out: Inhibition of COX Enzymes in COS Cell Assays, COX-2 % inhibition, 0.1 μM) stood at 17%. Further, on human recombinant COX-2 (setting [4]), the inhibition at 1 µM was 37% and the inhibition at 10 µM was found to be 51%.

For the compound `O=C1c2ccccc2C(S(=O)(=O)CC(F)(F)F)C(=O)N1Cc1ccccc1` (stereo not drawn) [Example 11], the inhibition at 1 µM on human recombinant COX-1 (1 μM) and at human recombinant COX-2 (setting [4]) was 0% each time. The inhibition at 10 µM turned out to be 64% on human recombinant COX-1 (10 μM) and 30% at human recombinant COX-2 (setting [4]). Further, the inhibition at 0.1 µg/mL amounted to 23% in assay [3] and 4% in assay [2]. Moreover, the inhibition at 1 µg/mL in assay [3] came out at 32%; in assay [2], 21%. Moreover, the inhibition at 10 µg/mL worked out at 52% in assay [3] and 50% in assay [2]. Besides, the IC50 on human recombinant COX-2 was 64 µM.
